Data: ChEMBL document CHEMBL1201862, “PubChem BioAssay data set” (2004)
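Five compound concentrations were applied to cells in 96-well plates for 48 hours; endpoints were derived by simple linear interpolation of the resulting dose-response curve. The concentration for 50% growth inhibition is given as GI50.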 Calls of active or inactive are those of the source. No stated cut-off is given here; in the data, active = GI50 up to about 1.1 µM and inactive = higher.

How the values were obtained:
Experiment in all cases: NCI anticancer screen, dose series, 48 h
A549 = tested on: A549
UO-31 = tested on: UO-31
CAKI-1 = tested on: CAKI-1
786-0 = tested on: 786-0
A498 = tested on: A498
CCRF-CEM = tested on: CCRF-CEM
NCI-H460 = tested on: NCI-H460
KM12 = tested on: KM12
RPMI-8226 = tested on: RPMI-8226
OVCAR-8 = tested on: OVCAR-8
TK-10 = tested on: TK-10
UACC-62 = tested on: UACC-62
OVCAR-4 = tested on: OVCAR-4
DLD-1 = tested on: DLD-1
EKVX = tested on: EKVX
M19-MEL = tested on: M19-MEL
HOP-18 = tested on: HOP-18
IGROV-1 = tested on: IGROV-1
HT-29 = tested on: HT-29
LOX IMVI = tested on: LOX IMVI
KM-20L2 = tested on: KM-20L2
LXFL 529 = tested on: LXFL 529
SF-295 = tested on: SF-295
ACHN = tested on: ACHN
SF-539 = tested on: SF-539
OVCAR-3 = tested on: OVCAR-3
DMS-273 = tested on: DMS-273
OVCAR-5 = tested on: OVCAR-5
RXF 393 = tested on: RXF 393
RXF 631 = tested on: RXF 631
HCT-15 = tested on: HCT-15
SK-OV-3 = tested on: SK-OV-3
Malme-3M = tested on: Malme-3M
NCI-H23 = tested on: NCI-H23
SNB-75 = tested on: SNB-75
U-251 = tested on: U-251
MOLT-4 = tested on: MOLT-4
XF498 = tested on: XF498
SW-620 = tested on: SW-620
K562 = tested on: K562
SK-MEL-2 = tested on: SK-MEL-2
COLO 205 = tested on: COLO 205
HCC 2998 = tested on: HCC 2998
SNB-19 = tested on: SNB-19
HL-60 = tested on: HL-60
SF-268 = tested on: SF-268
NCI-H522 = tested on: NCI-H522
SK-MEL-5 = tested on: SK-MEL-5
M14 = tested on: M14
SK-MEL-28 = tested on: SK-MEL-28
HOP-92 = tested on: HOP-92
SN12C = tested on: SN12C
SNB-78 = tested on: SNB-78
UACC-257 = tested on: UACC-257
HCT-116 = tested on: HCT-116
NCI-H226 = tested on: NCI-H226

For `CCCCCCCCCOC(=S)NC`, the GI50 (A549) was 24.8 µM (inactive), the GI50 (UO-31) was 11.2 µM (inactive) and the GI50 (CAKI-1) was 20.7 µM (inactive). For the same molecule, the GI50 (786-0) was 18.2 µM (inactive), the GI50 (A498) was 20.1 µM (inactive) and the GI50 (CCRF-CEM) was 19.7 µM (inactive). For the same molecule, the GI50 (NCI-H460) was 19.7 µM (inactive), the GI50 (KM12) was 25.6 µM (inactive) and the GI50 (RPMI-8226) was 20 µM (inactive). The GI50 (OVCAR-8) was 18.8 µM (inactive), the GI50 (TK-10) was 21.3 µM (inactive) and the GI50 (UACC-62) was 23.2 µM (inactive). For the same molecule, the GI50 (OVCAR-4) was 19.6 µM (inactive), the GI50 (DLD-1) was 16.6 µM (inactive) and the GI50 (EKVX) was 28.1 µM (inactive). For the same molecule, the GI50 (M19-MEL) was 23.4 µM (inactive), the GI50 (HOP-18) was 19.6 µM (inactive) and the GI50 (IGROV-1) was 24.2 µM (inactive). For the same molecule, the GI50 (HT-29) was 20.6 µM (inactive), the GI50 (LOX IMVI) was 18.2 µM (inactive) and the GI50 (KM-20L2) was 18 µM (inactive). The GI50 (LXFL 529) was 17.8 µM (inactive), the GI50 (SF-295) was 27.8 µM (inactive) and the GI50 (ACHN) was 19.3 µM (inactive). For the same molecule, the GI50 (SF-539) was 17.6 µM (inactive), the GI50 (OVCAR-3) was 19.9 µM (inactive) and the GI50 (DMS-273) was 18.3 µM (inactive). For the same molecule, the GI50 (OVCAR-5) was 18.3 µM (inactive), the GI50 (RXF 393) was > 10 µM (inactive) and the GI50 (RXF 631) was 21 µM (inactive). For the same molecule, the GI50 (HCT-15) was 18.7 µM, the GI50 (SK-OV-3) was 24.5 µM (inactive) and the GI50 (Malme-3M) was 20.6 µM (inactive). The GI50 (NCI-H23) was 16.7 µM (inactive), the GI50 (SNB-75) was 26.1 µM (inactive) and the GI50 (U-251) was 16.9 µM (inactive). For the same molecule, the GI50 (MOLT-4) was 17.1 µM (inactive), the GI50 (XF498) was 18.2 µM (inactive) and the GI50 (SW-620) was 20.9 µM (inactive). The GI50 (K562) was 21.8 µM (inactive), the GI50 (SK-MEL-2) was 19.5 µM (inactive) and the GI50 (COLO 205) was 22.8 µM (inactive). The GI50 (HCC 2998) was 19.1 µM (inactive), the GI50 (SNB-19) was 30.8 µM (inactive) and the GI50 (HL-60) was 15.4 µM (inactive). For the same molecule, the GI50 (SF-268) was 19.5 µM (inactive), the GI50 (NCI-H522) was 14.7 µM (inactive) and the GI50 (SK-MEL-5) was 19.1 µM (inactive). For the same molecule, the GI50 (M14) was 21.1 µM (inactive), the GI50 (SK-MEL-28) was 22.3 µM (inactive) and the GI50 (HOP-92) was 18.2 µM (inactive). The GI50 (SN12C) was 18.4 µM (inactive).

For `O=C1CCCC(O)=C1SC1=C(O)CCCC1=O`, the GI50 (A549) was 70.3 µM (inactive), the GI50 (UO-31) was 98.2 µM (inactive) and the GI50 (CAKI-1) was 94.2 µM (inactive). For the same molecule, the GI50 (786-0) was 81.1 µM (inactive), the GI50 (A498) was 39.2 µM (inactive) and the GI50 (CCRF-CEM) was 71.6 µM (inactive). The GI50 (KM12) was > 100 µM (inactive), the GI50 (RPMI-8226) was > 100 µM (inactive) and the GI50 (OVCAR-8) was > 100 µM (inactive). The GI50 (TK-10) was > 100 µM (inactive), the GI50 (UACC-62) was 46.9 µM (inactive) and the GI50 (OVCAR-4) was > 100 µM (inactive). The GI50 (DLD-1) was 35.2 µM (inactive), the GI50 (SNB-78) was > 100 µM (inactive) and the GI50 (EKVX) was > 100 µM (inactive). For the same molecule, the GI50 (M19-MEL) was > 100 µM (inactive), the GI50 (HOP-18) was > 100 µM (inactive) and the GI50 (IGROV-1) was > 100 µM (inactive). For the same molecule, the GI50 (HT-29) was 72.8 µM (inactive), the GI50 (LOX IMVI) was > 100 µM (inactive) and the GI50 (UACC-257) was > 100 µM (inactive). The GI50 (SF-295) was > 100 µM (inactive), the GI50 (SF-539) was > 100 µM (inactive) and the GI50 (OVCAR-3) was > 100 µM (inactive). For the same molecule, the GI50 (DMS-273) was > 100 µM (inactive), the GI50 (HCT-116) was 76 µM (inactive) and the GI50 (OVCAR-5) was > 100 µM (inactive). The GI50 (NCI-H226) was > 100 µM (inactive), the GI50 (RXF 393) was > 100 µM (inactive) and the GI50 (RXF 631) was > 100 µM (inactive). The GI50 (HCT-15) was 47.2 µM, the GI50 (SK-OV-3) was > 100 µM (inactive) and the GI50 (Malme-3M) was > 100 µM (inactive). For the same molecule, the GI50 (NCI-H23) was > 100 µM (inactive), the GI50 (SNB-75) was 77.4 µM (inactive) and the GI50 (U-251) was > 100 µM (inactive). The GI50 (MOLT-4) was > 100 µM (inactive), the GI50 (SW-620) was > 100 µM (inactive) and the GI50 (K562) was 51.4 µM (inactive). For the same molecule, the GI50 (SK-MEL-2) was > 100 µM (inactive), the GI50 (COLO 205) was > 100 µM (inactive) and the GI50 (HCC 2998) was 70.1 µM (inactive). The GI50 (SNB-19) was > 100 µM (inactive), the GI50 (HL-60) was > 100 µM (inactive) and the GI50 (SF-268) was > 100 µM (inactive). The GI50 (NCI-H522) was > 100 µM (inactive), the GI50 (SK-MEL-5) was > 100 µM (inactive) and the GI50 (M14) was 56.4 µM (inactive). The GI50 (SK-MEL-28) was 69.2 µM (inactive), the GI50 (HOP-92) was > 100 µM (inactive) and the GI50 (SN12C) was 74 µM (inactive).
